From patent US20100061994A1, “MEDICAL USES OF 39-DESMETHOXYRAPAMYCIN AND ANALOGUES THEREOF” (priority 2005, published 2010)

Columns and labels:
NCI 60 cell line panel = NCI 60 cell line panel monolayer proliferation assay (Protocol 2, SRB) with COMPARE analysis; format: cell-based, human; conditions: with the exception of one cell line
Protocol: The COMPARE analysis uses a Pearson analysis to compare the activity of two compounds on the NCI 60-cell line panel and produces a correlation coefficient which indicates how similar the two compounds spectra of activity are and this may indicate how related their mechanism's of action are.
The human tumor cell lines of the National Cancer Institute (NCI) cancer screening panel were grown in RPMI 1640 medium containing 5% fetal bovine serum and 2 mM L-glutamine (Boyd and Paull, 1995). Cells were inoculated into 96 well microtiter plates in 0.1 mL at plating densities ranging from 5,000 to 40,000 cells/well depending on the doubling time of individual cell lines. […]
(§1) Following drug addition, the plates were incubated for an additional 48 h at 37° C., 5% CO2, 95% air, and 100% relative humidity. […] Bound stain was subsequently solubilized with 10 mM trizma base, and the absorbance was read on an automated plate reader at a wavelength of 515 nm. […] Using the seven absorbance measurements [time zero, (Tz), control growth, (C), and test growth in the presence of drug at the five concentration levels (Ti)], the percentage growth was calculated at each of the drug concentrations levels. Percentage growth inhibition was calculated as:
(§2) Three dose response parameters were calculated for each experimental agent. […] The drug concentration resulting in total growth inhibition (TGI) was calculated from Ti=Tz. […]

[1] = mouse, in vivo
Protocol: (§5) The test compounds were prepared in a vehicle consisting of 4% Ethanol, 5% Tween-20, 5% polyethyleneglycol 400 in 0.15M NaCl. A single dbse of 10 mg/kg p.o. or 3 mg/kg i.v. was administered to groups of female CD1 mice (3 mice for each compound per time point). At 0 min, 4 min, 15 min, 1 h, 4 h, and 24 h groups were sacrificed and the blood and the brain were collected from each mouse for further analysis.
(§6) The brain samples were snap frozen in liquid nitrogen and stored at −20° C. A minimum of 0.2 mL of whole blood from each animal was collected in tubes containing ethylene diamine tetra-acetic acid (EDTA) as anticoagulant, thoroughly mixed, and stored at −20° C.
(§7) Analysis was performed by ASI Limited, (St George's Hospital Medical School, London). The concentration of the test compound in the blood and brain samples supplied was determined by HPLC with MS detection. Control, test compound free, blood samples were obtained from Harlan Sera-Lab Limited, (Loughborough, England). Time zero brain samples were supplied as control, test compound free, brain samples.
(§8) One hemisphere of each brain was homogenized with 5 mL water.
(§9) The control or test sample of mouse brain or blood (0.05 mL), internal standard solution (0.1 mL), 5% Zinc sulphate solution (0.5 mL), and acetone (0.5 mL) were pipetted into a 2 mL polypropylene tube (Sarstedt Limited, Beaumont Leys, Leicester, UK) and the contents were then mixed for a minimum of 5 minutes (IKA-Vibrax-VXR mixer, Merck (BDH) Limited, Poole Dorset, UK). The tubes were then centrifuged in a microfuge for a minimum of 2 minutes. The solvent layer was decanted into a 4.5 mL polypropylene tube containing sodium hydroxide (0.1M, 0.1 mL) and methyl-tert-butyl ether (MTBE, 2 mL). The tube was then mixed for a minimum of 5 minutes (IKA-Vibrax-VXR mixer) and then centrifuged at 3500 rpm for 5 minutes. The solvent layer was transferred to a 4.5 mL conical polypropylene tube, placed in a SpeedVac® and evaporated to dryness.
(§10) The dried extracts were reconstituted with 0.15 mL 80% methanol and mixed for a minimum of 5 minutes (IKA-Vibrax-VXR mixer) and centrifuged at 3500 rpm for 5 minutes. The extract was transferred to auto sampler tubes (NLG Analytical, Adelphi Mill, Bollington, Cheshire, UK) and placed into the auto-sampler tray which was set at ambient temperature. The auto-sampler was programmed to inject a 0.03 mL aliquot of each extract onto the analytical column.
(§11) The AUC for each compound in blood or in brain tissue was calculated using Kinetica 4.4 (InnaPhase Corporation), using a non-compartmental model and the trapezoidal method for AUC calculation.
(§12) The partition coefficient (Ri) for each compound after p.o. and i.v. administration was calculated as shown below:
(§13) The partition coefficient (R) for each compound after i.v. administration was calculated as shown below:

FKBP12 = FKBP12 (Homo sapiens, UniProt P62942); test: In vitro FKBP12 binding assay (GdnHCl unfolding); conditions: relative to literature Kd of rapamycin 0.2 nM
Source text: FKBP12 reversibly unfolds in the chemical denaturant guandinium hydrochloride (GdnHCl) and the unfolding can be monitored by the change in the intrinsic fluorescence of the protein (Main et al, 1998). Ligands which specifically bind and stabilise the native state of FKBP12 shift the denaturation curve such that the protein unfolds at higher concentrations of chemical denaturant (Main et al, 1999). From the difference in stability, the ligand-binding constant can be determined using equation 1.
where ΔGapp is the apparent difference in free energy of unfolding between free and ligand-bound forms, ΔGD−N^H^2^O is the free energy of unfolding in water of free protein, [L] the concentration of ligand and kd the dissociation constant for the protein-ligand complex (Meiering et al, 1992). The free energy of unfolding can be related to the midpoint of the unfolding transition using the following equation: […]
where mD−N is a constant for a given protein and given denaturant and which is proportional to the change in degree of exposure of residues on unfolding (Tanford 1968 and Tanford 1970), and [D]50% is the concentration of denaturant corresponding to the midpoint of unfolding.
where <mD−N> is the average m-value of the unfolding transition and Δ[D]50% the difference in midpoints for the rapamycin-FKBP12 unfolding transition and unknown-ligand-FKBP12 complex unfolding transition. Under conditions where [L]>Kd, then, ΔΔGD−N, can be related to the relative Kds of the two compounds through equation 4: […]

Caco-2 cells = test: Caco-2 permeation assay; conditions: 0.01 mM
Protocol: Confluent Caco-2 cells (Li, A. P., 1992; Grass, G. M., et al., 1992, Volpe, D. A., et al., 2001) in a 24 well Corning Costar Transwell format were provided by In Vitro Technologies Inc. (IVT Inc., Baltimore, Md., USA). The apical chamber contained 0.15 mL Hank's balanced buffer solution (HBBS) pH 7.4, 1% DMSO, 0.1 mM Lucifer Yellow. The basal chamber contained 0.6 mL HBBS pH 7.4, 1% DMSO. Controls and tests were incubated at 37° C. in a humidified incubator, shaken at 130 rpm for 1 h. Lucifer Yellow permeates via the paracellular (between the tight junctions) route only, a high Apparent Permeability (Papp) for Lucifer Yellow indicates cellular damage during assay and all such wells were rejected. […] Compounds were tested in a uni- and bi-directional format by applying compound to the apical or basal chamber (at 0.01 mM). Compounds in the apical or basal chambers were analysed by HPLC-MS (Method A, see Materials & Methods). Results were expressed as Apparent Permeability, Papp, (nm/s) and as the Flux Ratio (A to B versus B to A).
[formula] • Volume Acceptor: 0.6 ml (A>B) and 0.15 ml (B>A) • Area of monolayer: 0.33 cm2 • Δtime: 60 min
A positive value for the Flux Ratio indicates active efflux from the apical surface of the cells.

[2] = Pharmacokinetic analysis Protocol 1 (blood and brain); conditions: female, CD1, mouse, 3 mg/kg
Protocol: as §5, §6, §7, §8, §9, §10, §11, §12, §13

HOP-62 = test: Monolayer assay Protocol 2 (SRB), high MDR-expressing cell lines; format: cell-based; conditions: Homo sapiens; NSCLC HOP-62, high MDR-expressing, 48 h
Protocol: (§3) The human tumor cell lines of the National Cancer Institute (NCI) cancer screening panel were grown in RPMI 1640 medium containing 5% fetal bovine serum and 2 mM L-glutamine (Boyd and Paull, 1995). Cells were inoculated into 96 well microtiter plates in 0.1 mL at plating densities ranging from 5,000 to 40,000 cells/well depending on the doubling time of individual cell lines. After cell inoculation, the microtiter plates were incubated at 37° C., 5% CO2, 95% air and 100% relative humidity for 24 h prior to addition of experimental drugs.
(§4) After 24 h, two plates of each cell line were fixed in situ with trichloroacetic acid (TCA), to represent a measurement of the cell population for each cell line at the time of drug addition (Tz). Experimental drugs were solubilized in dimethyl sulfoxide at 400-fold the desired final maximum test concentration and stored frozen prior to use. At the time of drug addition, an aliquot of frozen concentrate was thawed and diluted to twice the desired final maximum test concentration with complete medium containing 0.05 mg/mL gentamicin. Additional four, 10-fold or ½ log serial dilutions were made to provide a total of five drug concentrations plus control. […]
as §1, §2

UO-31 = test: as above; format: cell-based; conditions: Homo sapiens; Renal UO-31, high MDR-expressing, 48 h
Protocol: as §3, §4, §1, §2

SW-620 = test: as above; format: cell-based; conditions: Homo sapiens; Colon SW-620, high MDR-expressing, 48 h
Protocol: as §3, §4, §1, §2

FKBP12, sequence (P62942 whole entry, species assumed): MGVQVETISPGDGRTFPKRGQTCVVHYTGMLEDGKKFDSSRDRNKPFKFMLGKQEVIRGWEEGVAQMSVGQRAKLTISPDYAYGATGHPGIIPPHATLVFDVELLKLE

Structure (SMILES)	efficacy against high MDR-expressing cell lines when compared to rapamycin (NCI 60 cell line panel)	AUCBLOOD i.v. ([1]; iv, 3 mg/kg)	AUCBRAIN i.v. ([1]; iv, 3 mg/kg)	AUCBLOOD p.o. ([1]; po, 10 mg/kg)	AUCBRAIN p.o. ([1]; po, 10 mg/kg)	Kd (FKBP12) [nM]	Caco-2: Efflux Ratio (Caco-2 cells; bi-directional format)	Caco-2: Papp (Caco-2 cells; pH 7.4, 1 h) [×10⁻⁶ cm/s]	Kp ([2]; brain / whole blood, intravenous)	AUC ([2]; whole blood, iv) [ng·h/mL]	GI50 (HOP-62) [nM]	GI50 (UO-31) [nM]	GI50 (SW-620) [nM]
COC1CC2CCC(C)C(O)(O2)C(=O)C(=O)N2CCCCC2C(=O)OC(C(C)CC2CCC(O)CC2)CC(=O)C(C)C=C(C)C(O)C(OC)C(=O)C(C)CC(C)C=CC=CC=C1C (stereo not shown) [39-desmethoxyrapamycin]	equivalent or improved efficacy	15444.3	24911.4	16856.5	1697.69	0.7	15	2.9	–	–	–	–	–
CO[C@H]1C[C@@H]2CC[C@@H](C)[C@@](O)(O2)C(=O)C(=O)N2CCCC[C@H]2C(=O)O[C@H]([C@H](C)C[C@@H]2CC[C@@H](O)[C@H](OC)C2)CC(=O)[C@H](C)/C=C(\C)[C@@H](O)[C@@H](OC)C(=O)[C@H](C)C[C@H](C)/C=C/C=C/C=C/1C [Rapamycin]	–	–	–	–	–	–	–	–	1.13	10800	234	100	25100
